# Results reported in patent publication US20250381306A1, “COMPOSITIONS AND METHODS FOR TREATING DIABETIC CARDIOMYOPATHY” (UNIVERSITY OF UTAH RESEARCH FOUNDATION, priority 2022, published 2025).
# Tested on: cardiomyocytes
# Assay: Adult primary cardiomyocyte glucose uptake test
# Format: cell-based, mouse
# Settings: db/db cardiomyocytes, 10 nM insulin, metformin (20 µM) positive control
# Protocol: Adult mouse cardiomyocytes were isolated from both male and female mice with collagenase II (2 mg/mL, Worthington Biochemical Corporation). Freshly isolated cardiomyocytes were seeded in laminin-precoated culture dishes and cultured in perfusion buffer (120.4 mM NaCl, 14.7 mM KCl, 0.6 mM KH2PO4, 0.6 mM Na2HPO4, 1.2 mM MgSO4×7H2O, 10 mM Hepes, 4.6 mM NaHCO3, 30 mM taurine, and 5.5 mM glucose) for 1 hour in 37° C. and 5% CO2 incubator prior to further experiments.
# For glucose uptake assays, freshly isolated CMCs were seeded and cultured in laminin-precoated 96-well plates for 1 hour prior to the test. Cells were then washed twice with glucose-free perfusion buffer (120.4 mM NaCl, 14.7 mM KCl, 0.6 mM KH2PO4, 0.6 mM Na2HPO4, 1.2 mM MgSO4: 7H2O, 10 mM HEPES) and starved in starvation buffer (glucose-free perfusion buffer containing 1 mM pyruvate, 0.1% BSA) for 40 min. Metformin (0, 20 μM) was loaded together with starvation buffer in the indicated groups. Cells were then stimulated in the absence or presence of insulin (0, 10 nM) (Sigma-Aldrich) for 20 min. Following the manufacturer's instructions, 2 DG-glucose uptake test in CMCs was then determined by Glucose Uptake Assay kit (Abcam) and quantified with a FlexStation 3 plate reader (Molecular Devices).
structure (smiles),measurement,value
CN(C)C(=N)N=C(N)N [metformin],insulin-stimulated uptake of 2-Deoxy-D-glucose,rescue
